{"source": "patent US10939684B2", "about": "“Preparation of sulfonamide-containing antimicrobials and substrate treating compositions of sulfonamide-containing antimicrobials” (NANO SAFE COATINGS INCORPORATED, priority 2015, dated 2021)", "system": "Arthrobacter spp.", "assay": "Large-droplet inoculation method, antimicrobial efficacy at solid-air interfaces", "type": "cell-based", "details": "for Average: average of A-C; for A (cfu): replicate A; for B (cfu): replicate B; for C (cfu): replicate C", "text": "Large-droplet inoculation method (Ronan E. et al, Biofouling 2013, 29, 1087-1096) Many pathogens are able to remain viable during extended periods of desiccation on inanimate surfaces. Long-term survival of pathogens in the inanimate environment pose a significant risk for infection transmission and contamination in high-risk environments such as hospital rooms or food-processing plants. The large-droplet inoculation method was developed to simulate the deposition of bacterial species onto exposed surfaces and to determine the ability of these cells to survive desiccation.\nFor these tests, small surface coupons were first coated with the antimicrobial using the method described above. Bacterial test species were grown overnight in a shaking incubator and cultures\nwere washed twice to replace the growth media with sterile water. 100 μL aliquots of the prepared culture were then inoculated onto multiple coated surfaces and allowed to air-dry within a biological safety cabinet. Drying typically occurred 2-3 hours after inoculation, and surviving cells were enumerated immediately and 24 hours after drying. For enumeration, inoculated coupons were sacrificed in triplicate and placed inside separate tubes containing 5 mL of a 0.9% saline collection liquid. Each coupon was agitated vigorously for 1 minute with a bench-top vortex to transfer cells from the test surface to the collection liquid. Plate counts were then performed on serial dilutions of the collection liquid, and colony counts from triplicate treated surfaces were averaged and compared to colony counts from tests of untreated control surfaces carried out in parallel.\nA range of bacterial species were used in these tests. Arthrobacter spp., a gram-positive lab strain originally isolated from indoor air was used in the bulk of the testing, as it is known to be highly resistant to desiccation and therefore was used as a model for desiccation-tolerant pathogens. Efficacy tests were also carried out against, for example, gram-negative Escherichia coli (E. coli) and gram-positive Staphylococcus aureus (S. aureus), since they all contain pathogenic strains and have been implicated in major nosocomial outbreaks. […] The following are the tabulated bacterial reduction data: […]", "key": {"[1]": {"details": "treated cotton, compared to untreated control (FIG. 3, FIG. 4)"}, "[2]": {"details": "treated cotton, 3 hours, load 6.10E+07"}, "[3]": {"details": "treated cotton, 24 hours, load 6.10E+07"}, "[4]": {"details": "treated polyethylene, 3 hours, load 2.70E+07"}, "[5]": {"details": "treated polyethylene, 24 hours, load 2.70E+07"}, "[6]": {"details": "treated cotton, 3 hours, load 1.28E+08"}, "[7]": {"details": "treated cotton, 3 hours, load 4.04E+07"}, "[8]": {"details": "treated cotton, 24 hours, load 1.28E+08"}, "[9]": {"details": "treated cotton, 24 hours, load 4.04E+07"}}, "note": "“Also recorded” adds a separate entry of the source.", "data": [{"molecule": "C[N+](C)(CCCNS(=O)(=O)c1cccc2ccccc12)CCCOc1ccc(C(=O)c2ccccc2)cc1.[Br-]", "note": "[3-(4-benzoylphenoxy)-N,N-dimethyl-N-(3-(naphthalene-1-sulfonamido)propyl)propan-1-aminium bromide]", "values": [{"measurement": "activity against Arthrobacter spp. (in words)", "setting": "treated polyethylene coupons, compared to untreated control (FIG. 5)", "result": "excellent activity"}]}, {"molecule": "CO[Si](CCC[N+](C)(C)CCCNS(=O)(=O)c1ccccc1)(OC)OC.[Cl-]", "note": "[Example 1a, N,N-dimethyl-3-(phenylsulfonamido)-N-(3-(trimethoxysilyl)propyl)propan-1-aminium chloride]", "values": [{"measurement": "activity against Arthrobacter spp. (in words)", "setting": "[1]", "result": "eradicated within three hours; also recorded: excellent activity"}, {"measurement": "Average", "setting": "[2]", "result": "0.00E+00", "unit": "cfu"}, {"measurement": "A (cfu)", "setting": "[2]", "result": "0.00E+00", "unit": "cfu"}, {"measurement": "B (cfu)", "setting": "[2]", "result": "0.00E+00", "unit": "cfu"}, {"measurement": "C (cfu)", "setting": "[2]", "result": "0.00E+00", "unit": "cfu"}, {"measurement": "Average", "setting": "[3]", "result": "0.00E+00", "unit": "cfu"}, {"measurement": "A (cfu)", "setting": "[3]", "result": "0.00E+00", "unit": "cfu"}, {"measurement": "B (cfu)", "setting": "[3]", "result": "0.00E+00", "unit": "cfu"}, {"measurement": "C (cfu)", "setting": "[3]", "result": "0.00E+00", "unit": "cfu"}]}, {"molecule": "C[N+](C)(CCCNS(=O)(=O)c1ccccc1)CCCOc1ccc(C(=O)c2ccccc2)cc1.[Br-]", "note": "[Example 1c, 3-(4-benzoylphenoxy)-N,N-dimethyl-N-(3-(phenylsulfonamido)propyl) propan-1-aminium bromide]", "values": [{"measurement": "activity against Arthrobacter spp. (in words)", "setting": "treated polyethylene coupons, compared to untreated control (FIG. 5), listed as 3-(4-benzoylphenoxy)-N,N-dimethyl-N-(3-(phenyl sulfonamido)propyl)propan- 1-amin", "result": "excellent activity"}, {"measurement": "activity against Arthrobacter spp. (in words)", "setting": "treated polyethylene coupons, compared to untreated control (FIG. 5), listed as 3-(4-benzoylphenoxy)-N,N-dimethyl-N-(3-(phenylsulfonamido)propyl)propan-1-aminiu", "result": "eradicated within three hours"}, {"measurement": "Average", "setting": "[4]", "result": "0.00E+00", "unit": "cfu"}, {"measurement": "A (cfu)", "setting": "[4]", "result": "0.00E+00", "unit": "cfu"}, {"measurement": "B (cfu)", "setting": "[4]", "result": "0.00E+00", "unit": "cfu"}, {"measurement": "C (cfu)", "setting": "[4]", "result": "0.00E+00", "unit": "cfu"}, {"measurement": "Average", "setting": "[5]", "result": "0.00E+00", "unit": "cfu"}, {"measurement": "A (cfu)", "setting": "[5]", "result": "0.00E+00", "unit": "cfu"}, {"measurement": "B (cfu)", "setting": "[5]", "result": "0.00E+00", "unit": "cfu"}, {"measurement": "C (cfu)", "setting": "[5]", "result": "0.00E+00", "unit": "cfu"}]}, {"molecule": "CO[Si](CCC[N+](C)(C)CCCNS(=O)(=O)c1ccc(C)cc1)(OC)OC.[Cl-]", "note": "[Example 2a, N,N-dimethyl-3-(4-methylphenylsulfonamido)-N-(3-(trimethoxysilyl)propyl) propan-1-aminium chloride]", "values": [{"measurement": "activity against Arthrobacter spp. (in words)", "setting": "treated cotton, compared to untreated control (FIG. 3, FIG. 4), listed as N,N-dimethyl-3-(4-methylphenyl sulfonamido)-N-(3-(trimethoxysilyl)propyl)propan-", "result": "excellent activity"}, {"measurement": "activity against Arthrobacter spp. (in words)", "setting": "treated cotton, compared to untreated control (FIG. 3, FIG. 4), listed as N,N-dimethyl-3-(4-methylphenylsulfonamido)-N-(3-(trimethoxysilyl) propyl)propan-", "result": "excellent activity"}, {"measurement": "activity against Arthrobacter spp. (in words)", "setting": "treated cotton, compared to untreated control (FIG. 3, FIG. 4), listed as N,N-dimethyl-3-(4-methylphenylsulfonamido)-N-(3-(trimethoxysilyl)propyl)propan-1", "result": "eradicated within three hours"}, {"measurement": "Average", "setting": "[6]", "result": "0.00E+00", "unit": "cfu"}, {"measurement": "A (cfu)", "setting": "[6]", "result": "0.00E+00", "unit": "cfu"}, {"measurement": "B (cfu)", "setting": "[6]", "result": "0.00E+00", "unit": "cfu"}, {"measurement": "C (cfu)", "setting": "[6]", "result": "0.00E+00", "unit": "cfu"}, {"measurement": "Average", "setting": "[7]", "result": "0.00E+00", "unit": "cfu"}, {"measurement": "A (cfu)", "setting": "[7]", "result": "0.00E+00", "unit": "cfu"}, {"measurement": "B (cfu)", "setting": "[7]", "result": "0.00E+00", "unit": "cfu"}, {"measurement": "C (cfu)", "setting": "[7]", "result": "0.00E+00", "unit": "cfu"}, {"measurement": "Average", "setting": "[8]", "result": "0.00E+00", "unit": "cfu"}, {"measurement": "A (cfu)", "setting": "[8]", "result": "0.00E+00", "unit": "cfu"}, {"measurement": "B (cfu)", "setting": "[8]", "result": "0.00E+00", "unit": "cfu"}, {"measurement": "C (cfu)", "setting": "[8]", "result": "0.00E+00", "unit": "cfu"}, {"measurement": "Average", "setting": "[9]", "result": "0.00E+00", "unit": "cfu"}, {"measurement": "A (cfu)", "setting": "[9]", "result": "0.00E+00", "unit": "cfu"}, {"measurement": "B (cfu)", "setting": "[9]", "result": "0.00E+00", "unit": "cfu"}, {"measurement": "C (cfu)", "setting": "[9]", "result": "0.00E+00", "unit": "cfu"}]}, {"molecule": "CO[Si](CCC[N+](C)(C)CCCNS(=O)(=O)c1c(C)cc(C)cc1C)(OC)OC.[Cl-]", "note": "[Example 3a, N,N-dimethyl-3-(trimethoxysilyl)-N-(3-(2,4,6-trimethylphenylsulfonamido)propyl)propan-1-aminium chloride]", "values": [{"measurement": "activity against Arthrobacter spp. (in words)", "setting": "treated cotton, compared to untreated control (FIG. 3, FIG. 4), listed as N,N-dimethyl-3-(trimethoxysilyl)-N-(3-(2,4,6-trimethyl phenylsulfonamido)propyl)", "result": "excellent activity"}, {"measurement": "activity against Arthrobacter spp. (in words)", "setting": "treated cotton, compared to untreated control (FIG. 3, FIG. 4), listed as N,N-dimethyl-3-(trimethoxysilyl)-N-(3-(2,4,6-trimethylphenylsulfonamido)propyl)p", "result": "eradicated within three hours"}, {"measurement": "Average", "setting": "[7]", "result": "0.00E+00", "unit": "cfu"}, {"measurement": "A (cfu)", "setting": "[7]", "result": "0.00E+00", "unit": "cfu"}, {"measurement": "B (cfu)", "setting": "[7]", "result": "0.00E+00", "unit": "cfu"}, {"measurement": "C (cfu)", "setting": "[7]", "result": "0.00E+00", "unit": "cfu"}, {"measurement": "Average", "setting": "[9]", "result": "0.00E+00", "unit": "cfu"}, {"measurement": "A (cfu)", "setting": "[9]", "result": "0.00E+00", "unit": "cfu"}, {"measurement": "B (cfu)", "setting": "[9]", "result": "0.00E+00", "unit": "cfu"}, {"measurement": "C (cfu)", "setting": "[9]", "result": "0.00E+00", "unit": "cfu"}]}, {"molecule": "CO[Si](CCC[N+](C)(C)CCCNS(=O)(=O)c1cccc2ccccc12)(OC)OC.[Cl-]", "note": "[Example 5a, N,N-dimethyl-3-(naphthalene-1-sulfonamido)-N-(3-(trimethoxysilyl)propyl)propan-1-aminium chloride]", "values": [{"measurement": "activity against Arthrobacter spp. (in words)", "setting": "[1]", "result": "eradicated within three hours; also recorded: excellent activity"}, {"measurement": "Average", "setting": "[2]", "result": "0.00E+00", "unit": "cfu"}, {"measurement": "A (cfu)", "setting": "[2]", "result": "0.00E+00", "unit": "cfu"}, {"measurement": "B (cfu)", "setting": "[2]", "result": "0.00E+00", "unit": "cfu"}, {"measurement": "C (cfu)", "setting": "[2]", "result": "0.00E+00", "unit": "cfu"}, {"measurement": "Average", "setting": "[3]", "result": "0.00E+00", "unit": "cfu"}, {"measurement": "A (cfu)", "setting": "[3]", "result": "0.00E+00", "unit": "cfu"}, {"measurement": "B (cfu)", "setting": "[3]", "result": "0.00E+00", "unit": "cfu"}, {"measurement": "C (cfu)", "setting": "[3]", "result": "0.00E+00", "unit": "cfu"}]}, {"molecule": "C[N+](C)(CCCNS(=O)(=O)c1cccc2ccccc12)CCCOc1ccc(C(=O)c2ccccc2)cc1.[Br-]", "note": "[Example 5c, 3-(4-benzoylphenoxy)-N,N-dimethyl-N-(3-(naphthalene-1-sulfonamido)propyl)propan-1-aminium bromide]", "values": [{"measurement": "activity against Arthrobacter spp. (in words)", "setting": "treated polyethylene coupons, compared to untreated control (FIG. 5), listed as 3-(4-benzoylphenoxy)-N,N-dimethyl-N-(3-(naphthalene-1-sulfonamido)propyl)propan-", "result": "eradicated within three hours"}, {"measurement": "Average", "setting": "[4]", "result": "0.00E+00", "unit": "cfu"}, {"measurement": "A (cfu)", "setting": "[4]", "result": "0.00E+00", "unit": "cfu"}, {"measurement": "B (cfu)", "setting": "[4]", "result": "0.00E+00", "unit": "cfu"}, {"measurement": "C (cfu)", "setting": "[4]", "result": "0.00E+00", "unit": "cfu"}, {"measurement": "Average", "setting": "[5]", "result": "0.00E+00", "unit": "cfu"}, {"measurement": "A (cfu)", "setting": "[5]", "result": "0.00E+00", "unit": "cfu"}, {"measurement": "B (cfu)", "setting": "[5]", "result": "0.00E+00", "unit": "cfu"}, {"measurement": "C (cfu)", "setting": "[5]", "result": "0.00E+00", "unit": "cfu"}]}]}
